pIC50: −log10 of the molar value. Counter-ions that a name gives are not always drawn.
What was measured:
LOVO = test: In vitro cytotoxicity MTS assay; type: cell-based; settings: Homo sapiens, 72 hours, mean of 2 to 5 determinations, asterisk = sensitive
HCT8 = test: In vitro cytotoxicity MTS assay; type: cell-based; settings: Homo sapiens, HCT-8, 72 hours, mean of 2 to 5 determinations
Colo320HSR = test: In vitro cytotoxicity MTS assay; type: cell-based; settings: Homo sapiens, COLO-320-HSR, 72 hours, mean of 2 to 5 determinations
Colo-201 = test: In vitro cytotoxicity MTS assay; type: cell-based; settings: Homo sapiens, 72 hours, mean of 2 to 5 determinations
T84 = test: In vitro cytotoxicity MTS assay; type: cell-based; settings: Homo sapiens, 72 hours, mean of 2 to 5 determinations
CCD18Co = test: In vitro cytotoxicity MTS assay; type: cell-based; settings: Homo sapiens, CCD-18Co, 72 hours, mean of 2 to 5 determinations
HCT116S542 = test: In vitro cytotoxicity MTS assay; type: cell-based; settings: Homo sapiens, 72 hours, mean of 2 to 5 determinations
CX-1 = test: In vitro cytotoxicity MTS assay; type: cell-based; settings: Homo sapiens, 72 hours, mean of 2 to 5 determinations
LS174T = test: In vitro cytotoxicity MTS assay; type: cell-based; settings: Homo sapiens, 72 hours, mean of 2 to 5 determinations, asterisk = sensitive
Sk-Co-1 = test: In vitro cytotoxicity MTS assay; type: cell-based; settings: Homo sapiens, 72 hours, mean of 2 to 5 determinations
MIP = test: In vitro cytotoxicity MTS assay; type: cell-based; settings: Homo sapiens, 72 hours, mean of 2 to 5 determinations
SW620 = test: In vitro cytotoxicity MTS assay; type: cell-based; settings: Homo sapiens, SW-620, 72 hours, mean of 2 to 5 determinations
HCT116 = test: In vitro cytotoxicity MTS assay; type: cell-based; settings: Homo sapiens, HCT-116, 72 hours, mean of 2 to 5 determinations
SW403 = test: In vitro cytotoxicity MTS assay; type: cell-based; settings: Homo sapiens, SW-403, 72 hours, mean of 2 to 5 determinations, asterisk = sensitive
Caco2 = test: In vitro cytotoxicity MTS assay; type: cell-based; settings: Homo sapiens, Caco-2, 72 hours, mean of 2 to 5 determinations, asterisk = sensitive
CCD_33C0 = test: In vitro cytotoxicity MTS assay; type: cell-based; settings: Homo sapiens, 72 hours, mean of 2 to 5 determinations, asterisk = sensitive
HT-29 = test: In vitro cytotoxicity MTS assay; type: cell-based; settings: Homo sapiens, 72 hours, mean of 2 to 5 determinations
Colo320DM = test: In vitro cytotoxicity MTS assay
Method: (§4) The IC50 for each cell line was assessed by MTS assays. The average IC50 values along with standard deviations were calculated from two to five individual determinations for each cell line. […] The IC50 unit is μM.
(§5) Cytotoxicity was assessed in cells by MTS (3-(4,5-dimethylthiazol-2-yl)-5-(3-carboxymethoxyphenyl)-2-(4-sulphenyl)-2H-tetrazolium, inner salt) assay (T. L. Riss et al., 1992, Mol. Biol. Cell, 3 (Suppl.): 184a).
(§6) To carry out the assays, the colon cells were plated at 4,000 cell/well in 96 well microtiter plates and 24 hours later serial diluted drugs were added. […] The cells were incubated at 37° C. for 72 hours at which time the tetrazolium dye MTS (333 μg/ml final concentration) in combination with the electron coupling agent phenazine methosulfate (25 μM final concentration) was added. A dehydrogenase enzyme in live cells reduces the MTS to a form that absorbs light at 492 nm that can be quantified spectrophotometrically. The greater the absorbency, the greater the number of live cells. The results were expressed as an IC50, which is the drug concentration required to inhibit cell proliferation (i.e., absorbance at 450 mm) to 50% of that of untreated control cells. The mean IC50 and standard deviation (SD) from multiple tests for each cell line were calculated.

SW480 = test: In vitro cytotoxicity MTS assay
Method: as §4, §5, §6

Colo-205 = test: In vitro cytotoxicity MTS assay; type: cell-based; settings: Homo sapiens, 72 hours, mean of 2 to 5 determinations
SW1417 = test: In vitro cytotoxicity MTS assay; type: cell-based; settings: Homo sapiens, 72 hours, mean of 2 to 5 determinations
SW837 = test: In vitro cytotoxicity MTS assay; type: cell-based; settings: Homo sapiens, 72 hours, mean of 2 to 5 determinations
[1] = test system: H292 lung cancer cell line; settings: serum starved, 20 ng/ml EGF, 0.5, 6 and 18 hours, vs media alone
Method: (§1) Control cells were treated with media alone. The expression profiling was performed, and data was analyzed using GeneChip® Expression Analysis software MAS 5.0 (Affymetrix, Santa Clara, Calif.).
(§2) The colon cells were grown using standard cell culture conditions: RPMI 1640 supplemented to contain 10% fetal bovine serum, 100 IU/ml penicillin, […] streptomycin, 2 mM L-glutamine and 10 mM Hepes (all from GibcoBRL, Rockville, Md.). RNA was isolated from 50-70% confluent cells or drug-treated cells using the RNeasy™ kits commercially available from Qiagen (Valencia, Calif.). Quality of the RNA was checked by measuring the 28s:18s ribosomal RNA ratio using Agilent 2100 bioanalyzer (Agilent, Technologies, Rockville, Md.). Concentration of total RNA was determined spectrophotometrically. 10 μg of total RNA from each cell line was used to prepare biotinylated probe according to the Affymetrix Genechip® Expression Analysis Technical Manual, 2001. Targets were hybridized to Affymetrix high density oligonucleotide array human HG-U133 set chips (Affymetrix, Santa Clara, Calif.). Arrays were then washed, and stained using the GeneChip Fluidics station according to the manufacture's instructions. The HG-U133 set consisting of two GeneChip® arrays contains nearly 45,000 probe sets representing more than 39,000 transcripts derived from approximately 33,000 well-substantiated human genes.
(§3) For the EGF induction studies, the colon cell line CACO2 and the lung cancer H292 cell line were washed 2×PBS, and the media was changed to RPMI without serum. The next day the cells were treated with 20 ng/ml EGF, and eventually lysed for RNA isolation 0.5, 6 and 18 hours post treatment. Gene expression was profiled as described below.

[2] = test system: CACO2 colon cancer cell line; settings: serum starved, 20 ng/ml EGF, 0.5, 6 and 18 hours, vs media alone
Method: as §1, §2, §3

C#Cc1cccc(Nc2ncnc3cc(OCCOC)c(OCCOC)cc23)c1 [BMS-461453, erlotinib HCl]
pIC50 (LOVO): 5.64
pIC50 (HCT8): < 5.00
pIC50 (Colo320HSR): < 5.00
pIC50 (Colo-201): < 5.00
pIC50 (T84): < 5.00
pIC50 (CCD18Co): 5.15
pIC50 (HCT116S542): < 5.00
pIC50 (CX-1): < 5.00
pIC50 (LS174T): 5.46
pIC50 (Sk-Co-1): 5.05
pIC50 (MIP): 5.01
pIC50 (SW620): < 5.00
pIC50 (HCT116): < 5.00
pIC50 (SW403): 5.24
pIC50 (Caco2): 5.26
pIC50 (CCD_33C0): 5.70
pIC50 (HT-29): < 5.00
Sensitivity of cell line to the EGFR inhibitor (Colo320DM; COLO320_DM, does not express EGFR): resistant
pIC50 (Colo320DM; Homo sapiens, COLO 320DM, 72 h): < 5.00
pIC50 (SW480; Homo sapiens, SW480, 72 h): < 5.00
Sensitivity of cell line to the EGFR inhibitor (SW480; SW480, expressing EGFR): insensitive
pIC50 (Colo-205): < 5.00
pIC50 (SW1417): < 5.00
pIC50 (SW837): 5.14

epidermal growth factor [EGFR]
Expression of 3-hydroxy-3-methylglutaryl-Coenzyme A synthase 2 stimulated [1]: Expression stimulated 3 fold by
Expression of BTG family, member 2 (BTG2) stimulated [1]: Expression stimulated 2 fold by
Expression of cystic fibrosis transmembrane conductance regulator (CFTR) stimulated [1]: Expression stimulated 2 fold by
Expression of prostaglandin G/H synthase and cyclooxygenase stimulated [1]: Expression stimulated 6 fold by
Expression of serine (or cysteine) proteinase inhibitor, clade B (ovalbumin), member 5 (SERPINB5) stimulated [1]: Expression stimulated 2 fold by
Expression of EphA1 (EPHA1) stimulated [2]: Expression stimulated 2 fold by
